In US20220257684A1, “ANTI-COCCIDIAL PHYTOGENIC FORMULATIONS” (priority 2019, published 2022):
“And” between values parts separate entries of the source, which are not always exact repeats. Identical values can stand only once. Marks after values point to notes of the source that are not given here.

Key:
[1] = tested on: E. tenella (ET) sporozoites invading Madin-Darby bovine kidney (MDBK) cells; experiment: Invasion assay (sporozoite entry into MDBK cells); format: cell-based, Eimeria tenella; settings: at 50 μg/ml; untreated invasion 20% of the cells
Method: FIGS. 3A-C are photomicrographs (left panels) and bar graphs (right panels) illustrating the in vitro effects of formulations composed of A. indica (AI), B. pilosa (BP), or a mixture of A. indica (AI) and B. pilosa (BP) on E. tenella (ET) sporozoite invasion. Madin-Darby bovine kidney (MDBK) cells were incubated with salinomycin (Sal), or plant extracts containing A. indica (AI)(3A), B. pilosa (BP) (3B) or a mixture of AI and BP (3C) at indicated dosages for 0.5 h. The sporozoites were added to the MDBK cells for […]. After washing, the MDBK cells were stained with hematoxylin and eosin (H&E) and counted. The invasion percentage (%) was plotted into bar graphs. The inset represents a magnified area. Scale bars of microscope in 100× and 40× (inset) are 10 μm and 50 μm (inset), respectively. Arrowhead indicates the MDBK cells infected with sporozoites.
Invasion assay. Madin-Darby bovine kidney (MDBK, ATCC® CCL-22) cells, grown in DMEM containing fetal bovine serum (10%) and supplements, were seeded onto glass cover slips in 24 wells at 2×10^5 cells/well. One day later, the cells were pre-incubated with DMEM medium containing salinomycin, or plant extracts and phytochemicals at doses indicated for 0.5 h. Fresh sporozoites (2×10^5) were added to the cells for additional 4 h. […]

[2] = tested on: E. tenella challenged chickens; experiment: Survival rate in E. tenella challenged chickens; format: in vivo, chicken; settings: ET-infected chickens (1×10^4 oocysts), substance in feed; infected standard feed 60%; FIG. 4B
Source text: (§1) FIG. 4A is a schematic drawing showing the experimental protocol used in in vivo studies. Birds in untreated groups had daily access to standard diet, and birds in treated groups were fed with diet containing salinomycin, A. indica (AI), B. pilosa (BP), or a mixture of AI plus BP. On day 7, chickens were challenged with PBS or E. tenella (ET) sporulated oocysts (1×10^4) by gavage. The survival rate in each group was monitored from day 1 to 7 post infection.
FIG. 4B is a graph showing survival rate in each group of FIG. 4A. Chickens were divided into eight groups: Group 1 (G1), uninfected and fed with a standard diet; Group 2 (G2), ET-infected and fed with a standard diet; Group 3 (G3) to Group 8 (G8), ET-infected and fed with diet containing salinomycin, BP alone, a combination of BP and different dosages of AI, or AI alone without BP as indicated. Each group has 15 chicks and P values are indicated.
Birds, diets, and experimental design. One-day-old Lohmann broiler chicks hatched at Taichung Hatchery (Taiwan) were wing-banded upon arrival, weighed, and randomly placed in Petersime starter brooder units. At 1 to 2 days post-hatching, the birds were given free access to water and diets. […] Growth performance (body weight and feed conversion), pathology (bloody droppings and gut morphometry) and survival rate were measured and examined (FIG. 4A). […]

[3] = tested on: E. tenella challenged chickens; experiment: Body weight gain in E. tenella challenged chickens; format: in vivo, chicken; settings: BP alone 0.01%, AI alone 0.01%
Source text: as §1
(§2) Birds, diets, and experimental design. One-day-old Lohmann broiler chicks hatched at Taichung Hatchery (Taiwan) were wing-banded upon arrival, weighed, and randomly placed in Petersime starter brooder units. At 1 to 2 days post-hatching, the birds were given free access to water and diets. The diets were formulated by mixing a base diet with a carrier alone (control diet) or with an indicated dose of a phytogenic formulation comprising Artemisia indica (AI), B. pilosa (BP), or both AI and BP. After grouping, birds were tube-fed with Eimeria oocysts to get infection. Growth performance (body weight and feed conversion), pathology (bloody droppings and gut morphometry) and survival rate were measured and examined (FIG. 4A). […]
Body weights (BW) of the chickens from FIG. 4B were monitored on Days 1, 7 and 14, and body-weight (BW) gains were calculated on Days 7 and 14. […]

[4] = tested on: E. tenella challenged chickens; experiment: Feed conversion rate in E. tenella challenged chickens; format: in vivo, chicken; settings: BP alone 0.01%, AI alone 0.01% in feed
Source text: as §1
as §2, with “4A). All birds were maintained in the institutional animal facility and handled according to institutional guidelines.” for “4A).”

[5] = tested on: E. tenella challenged chickens; experiment: Fecal oocyst excretion in E. tenella challenged chickens; format: in vivo, chicken
Source text: as §1
(§3) Birds, diets, and experimental design. One-day-old Lohmann broiler chicks hatched at Taichung Hatchery (Taiwan) were wing-banded upon arrival, weighed, and randomly placed in Petersime starter brooder units. At 1 to 2 days post-hatching, the birds were given free access to water and diets. The diets were formulated by mixing a base diet with a carrier alone (control diet) or with an indicated dose of a phytogenic formulation comprising Artemisia indica (AI), B. pilosa (BP), or both AI and BP. After grouping, birds were tube-fed with Eimeria oocysts to get infection. Growth performance (body weight and feed conversion), pathology (bloody droppings and gut morphometry) and survival rate were measured and examined (FIG. 4A). All birds were maintained in the institutional animal facility and handled according to institutional guidelines.
(§4) The anti-coccidial effects of the extracts of A. indica (AI), B. pilosa (BP) and a combination of both extracts were examined in vivo. Chickens were randomly divided into 8 groups and given daily (Day 1 to Day 14) access to standard chicken feed (Groups 1 and 2), feed containing salinomycin (Group 3), or feed containing the plant extracts (Groups 4 to 8) at the indicated doses (FIG. 4A).
Excretion of Eimeria oocysts in the feces of ET-infected chickens is an indicator of Eimeria multiplication. The oocysts per gram feces (OPG) in the chickens from FIG. 4B were counted from Day 3 to Day 7 post ET infection. No oocysts in the feces were detected in the uninfected unmedicated control group (Group 1, Table 3). Fecal oocyst excretion was first detected on Day 4 post infection in all the ET-infected groups and reached its peak on Day 7 post infection (Group 2).

[6] = tested on: E. tenella challenged chickens; experiment: Gross cecal lesion scores in E. tenella challenged chickens; format: in vivo, chicken; settings: ceca, Day 7 post ET infection
Source text: as §1, §3, §4
Gross lesions in the ceca of the chickens from FIG. 4B were examined and scored. The uninfected unmedicated control chickens (Group 1, Table 4) had no lesions in the ceca (score=0). The ET infection caused more gross cecal lesions in the gut of unmedicated chickens, as evidenced by an average lesion score of 4 (Group 2) on Day 7 post infection.

[7] = tested on: E. tenella challenged chickens; experiment: Microscopic cecal lesion scores and histology in E. tenella challenged chickens; format: in vivo, chicken; settings: ceca, Day 7 post ET infection
Source text: as §1, §3
Immunohistochemical staining. Multiple parallel sections of the ceca from chickens that had access to control diet and the diet containing Artemisia indica (AI), B. pilosa (BP), or both for 14 days were flash-frozen. The sections were stained with H&E or anti-insulin antibody, with development of diaminobenzidine tetrahydrochloride, followed by image analysis (Yang et al. Research in Veterinary Science (2015) 98:74-81).
as §4
Mucosal damages caused by coccidia were examined under microscope and scored as microscopic cecal lesions based on the distribution and severity of the mucosal destructions in the chicken cecum.

[8] = tested on: E. tenella challenged chickens; experiment: Bloody stools in E. tenella challenged chickens; format: in vivo, chicken; settings: Day 7 post ET infection, versus infected unmedicated birds (100%), FIG. 5
Source text: as §1
FIG. 5 is a bar graph showing percentage of bloody stools in each chicken group of FIG. 4A-B on Day 7 post E. tenella (ET) infection. Chicken stools were classified on Day 1 to Day 7 post infection.
as §2

E. tenella oocysts = experiment: Sporulation assay; format: cell-based, Eimeria tenella; settings: positive control, FIG. 2A
Method: FIGS. 2A-C are photomicrographs (upper panels) and bar graphs (lower panels) illustrating the in vitro effects of formulations comprising A. indica (AI), B. pilosa (BP), or a mixture of A. indica (AI) and B. pilosa (BP) on viability of E. tenella (ET) oocysts and its sporulation. The oocysts were pre-treated with PBS, sodium dithionite (SD), an inhibitor of oocyst sporulation or plant extracts containing AI (2A), BP (2B), or both AI and BP (2C) at the indicated dosages for 48 h. The oocysts were induced to sporulate by potassium dichromate for 2 days. The percentage of sporulating oocysts was counted using a microscope ([…]) and plotted into bar graphs (right panel); scale bar is 200 μm. Arrow indicates sporulating oocysts whilst arrowhead indicates non-sporulating oocysts.
Sporulation assay. The E tenella oocysts were pre-treated with PBS, boiling (100° C. for 30 min) or plant extracts at indicated doses for 48 h. The oocysts were incubated with 2% potassium dichromate for 2 days before sporulation. The percentage of sporulating oocysts (%) was counted.
The effects of the plant extracts on sporulation of E. ET oocysts were tested. Seventy percent of ET oocysts were able to sporulate in the in vitro culture (PBS, FIG. 2A). […]

In the case of `CC[C@@H](C(=O)[C@@H](C)[C@@H](O)[C@H](C)[C@@H]1O[C@@H]([C@@H](CC)C(=O)O)CC[C@@H]1C)[C@H]1O[C@]2(C=C[C@@H](O)[C@]3(CC[C@@](C)([C@H]4CC[C@](O)(CC)[C@H](C)O4)O3)O2)[C@H](C)C[C@@H]1C` [salinomycin, Salinomycin], the “ET sporozoite invasion (invasion percentage of MDBK cells)” value [1] is reported as 10%, the survival rate [2] is reported as 100% and the “BWG (g) Day 7-1” value ([3]; body weight Day 7 minus Day 1, prior to ET infection, substance in feed from Day 1) is reported as 27.64 ± 1.16 g. The “BWG (g) Day 14-1” value ([3]; body weight Day 14 minus Day 1, ET oocysts (1×10^4) on Day 7, substance in feed Day 1 to 14) was 56.33 g and 56.33 ± 3.15 g, the “FCR Day 7-1” value ([4]; feed intake (Kg) divided by body weight gain on day 7, prior to ET infection) was 2.42 ± 0.08 and the “FCR Day 14-1” value ([4]; feed intake (Kg) divided by body weight gain on day 14, ET-infected) was 3.05 and 3.05 ± 0.13. The “oocysts per gram of feces versus infected unmedicated birds (Group 2), result in words” value ([5]; Day 3 to Day 7 post ET infection) was “slightly less oocysts per gram of feces”, the “Ln(OPG ± 1), 3 days post-infection” value ([5]; oocysts per gram feces, Day 3 post ET infection, BP alone 0.01%, AI alone 0.01% in feed) was 0 ± 0 and the “Ln(OPG ± 1), 4 days post-infection” value ([5]; oocysts per gram feces, Day 4 post ET infection, BP alone 0.01%, AI alone 0.01% in feed) was 3.45 ± 0.16^a,b. The “Ln(OPG ± 1), 5 days post-infection” value ([5]; oocysts per gram feces, Day 5 post ET infection, BP alone 0.01%, AI alone 0.01% in feed) was 4.49 ± 0.02^a,b, the “Ln(OPG ± 1), 6 days post-infection” value ([5]; oocysts per gram feces, Day 6 post ET infection, BP alone 0.01%, AI alone 0.01% in feed) was 4.89 ± 0.01^a,b and the “Ln(OPG ± 1), 7 days post-infection” value ([5]; oocysts per gram feces, Day 7 post ET infection, BP alone 0.01%, AI alone 0.01% in feed) was 5.33 ± 0.01^a,b. The “Gross lesion score 0: number of chickens” value ([6]; chickens in grade / n) was 0/15, the “Gross lesion score 1: number of chickens” value ([6]; chickens in grade / n) was 0/15 and the “Gross lesion score 2: number of chickens” value ([6]; chickens in grade / n) was 0/15. For the same compound, the “Gross lesion score 3: number of chickens” value ([6]; chickens in grade / n) was 1/15, the “Gross lesion score 4: number of chickens” value ([6]; chickens in grade / n) was 6/15 and the “Gross lesion score, Average” value ([6]; infected unmedicated 4.00, BP alone 0.01%, AI alone 0.01% in feed) was 3.86 and 3.86 ± 0.10. For the same compound, the “Microscopic lesion score 0 (fraction)” value [7] was 0/15, the “Microscopic lesion score 1 (fraction)” value [7] was 0/15 and the “Microscopic lesion score 3 (fraction)” value [7] was 0/15. For the same compound, the “Microscopic lesion score 5 (fraction)” value [7] was 0/15, the “Microscopic lesion score 7 (fraction)” value [7] was 2/15 and the “Microscopic lesion score, Average” value ([7]; infected unmedicated 7.20, BP alone 0.01%, AI alone 0.01% in feed) was 6.29 and 6.29 ± 0.13. The “percentage of bloody stools” value [8] was “significantly decrease in the percentage of bloody stools”.
In the case of `O=S([O-])S(=O)[O-].[Na+].[Na+]` [sodium dithionite], the “reduction of sporulation of ET oocysts as compared to the PBS treatment group” value (E. tenella oocysts) is reported as 40%.
